# Laboratory results: patent publication US11958861B2, “Spirocyclic lactams as JAK2 V617F inhibitors” (Incyte Corporation, priority 2021, dated 2024)
# Structures can show the parent of a compound that is named as a salt.
# Tests used:
# [1] = molecular target: T1, catalytic domain (JH1, amino acids 808-1132) of human JAK2 (Homo sapiens, UniProt O60674); assay: JAK2 HTRF Enzyme Activity Assay; format: biochemical; conditions: ATP 30 μM, read-out: ENZ 30UMATP
# T1 construct: catalytic domain (JH1, amino acids 808-1132) of human JAK2; His (N); purchased BPS Bioscience 40450; host or cells: baculovirus expression system
# T1 sequence (O60674 808-1132): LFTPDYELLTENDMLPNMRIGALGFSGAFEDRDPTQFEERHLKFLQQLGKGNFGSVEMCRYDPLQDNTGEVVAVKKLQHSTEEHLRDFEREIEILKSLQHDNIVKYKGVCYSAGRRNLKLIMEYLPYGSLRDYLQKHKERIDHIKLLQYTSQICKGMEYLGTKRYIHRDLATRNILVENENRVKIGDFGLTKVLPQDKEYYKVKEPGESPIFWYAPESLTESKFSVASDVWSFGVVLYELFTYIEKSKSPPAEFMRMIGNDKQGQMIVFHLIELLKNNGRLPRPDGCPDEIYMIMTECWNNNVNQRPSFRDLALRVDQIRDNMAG
# Outline: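 His-tagged JAK2 JH1 from baculovirus, 0.015 nM, incubated with compound, ATP at 30 μM or 1 mM and 500 nM biotinylated peptide, pH 7.5, 60 min at 25° C. HTRF read-out via Eu-anti-phosphotyrosine and streptavidin-APC after EDTA stop; IC50 from four-parameter dose-response fit.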
# [2] = molecular target: T2, catalytic domain (JH1, amino acids 826-1132) of human JAK2 (Homo sapiens, UniProt O60674); assay: JAK2 LanthaScreen JH1 Binding Assay; conditions: 2 hours at 25° C.
# T2 construct: catalytic domain (JH1, amino acids 826-1132) of human JAK2; purchased Carna Biosciences 08-445-20N; host or cells: baculovirus expression system
# T2 sequence (O60674 826-1132): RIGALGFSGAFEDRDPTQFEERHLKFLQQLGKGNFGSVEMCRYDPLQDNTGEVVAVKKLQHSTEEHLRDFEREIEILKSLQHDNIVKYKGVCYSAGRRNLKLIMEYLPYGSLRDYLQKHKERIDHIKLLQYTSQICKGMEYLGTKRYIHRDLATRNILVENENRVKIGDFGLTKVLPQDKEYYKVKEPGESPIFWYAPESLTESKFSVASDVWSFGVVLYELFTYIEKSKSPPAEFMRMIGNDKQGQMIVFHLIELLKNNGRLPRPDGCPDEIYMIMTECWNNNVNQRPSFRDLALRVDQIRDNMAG
# Outline: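 FLAG-tagged biotinylated JAK2 JH1 (1.5 nM) incubated with compounds, 50 nM fluorescent tracer and 0.5 nM streptavidin-Tb in Tris pH 7.5 buffer with MgCl2, BSA, DTT, 2 h at 25 °C.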
# [3] = molecular target: T3, pseudo-kinase domain (JH2, amino-acids 536-812) of human Wild Type JAK2 (Homo sapiens, UniProt O60674, F794H/W659A/W777A); assay: JAK2 LanthaScreen JH2-WT Binding Assay; conditions: 1 hour at 25° C.
# T3 construct: pseudo-kinase domain (JH2, amino-acids 536-812 with 3 surface mutations W659A, W777A, F794H); purchased BPS Bioscience 79463; host or cells: baculovirus expression system
# T3 sequence (O60674 536-812 W659A/W777A/F794H): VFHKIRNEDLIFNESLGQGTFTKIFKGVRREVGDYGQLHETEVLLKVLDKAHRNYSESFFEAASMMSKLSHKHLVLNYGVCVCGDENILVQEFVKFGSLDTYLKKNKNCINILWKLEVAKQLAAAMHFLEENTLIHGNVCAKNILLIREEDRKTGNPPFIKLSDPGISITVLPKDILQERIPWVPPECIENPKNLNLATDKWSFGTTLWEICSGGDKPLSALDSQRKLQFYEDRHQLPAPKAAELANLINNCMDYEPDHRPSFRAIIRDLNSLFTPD
# Outline: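 TR-FRET tracer displacement: 0.145 nM biotinylated JH2 protein, 50 nM fluorescent tracer, 0.25 nM streptavidin-Tb, compound dilution series; 50 mM Tris pH 7.5, 10 mM MgCl2, 5 mM DTT; 1 h, 25° C. Non-specific binding with 2 mM ATP. IC50 by 4-parameter fit.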
# [4] = molecular target: T4, pseudo-kinase domain (JH2, amino-acids 536-812) of human V617F mutant JAK2 (Homo sapiens, UniProt O60674, F794H/V617F/W659A/W777A); assay: JAK2 LanthaScreen JH2-V617F Binding Assay; conditions: 1 hour at 25° C.
# T4 construct: pseudo-kinase domain (JH2, amino-acids 536-812 with 3 surface mutations W659A, W777A, F794H); purchased BPS Bioscience 79498; host or cells: baculovirus expression system
# T4 sequence (O60674 536-812 V617F/W659A/W777A/F794H): as the sequence (O60674 536-812 W659A/W777A/F794H) above, with V82F counted along it
# Outline: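 Biotinylated His-Avi-tagged construct, baculovirus-expressed, at 0.26 nM; compounds competed against 50 nM fluorescent JH2 tracer with 0.25 nM streptavidin-Tb in Tris pH 7.5 buffer. Non-specific binding defined with 2 mM ATP. Read after 1 h at 25° C by TR-FRET; IC50 from four-parameter fit.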
Compound,IC50 [1] [nM],IC50 [2] [nM],IC50 [3] [nM],IC50 [4] [nM]
"CN1C(=O)C2(CCN(c3ccncn3)CC2)c2c1cnc1[nH]c(-c3cnn(C)c3)c(C3=CCOCC3)c21 [Example 20, 1-(3,6-Dihydro-2H-pyran-4-yl)-6-methyl-2-(1-methyl-1H-pyrazol-4-yl)-(1-(pyrimidin-4-yl)-3,6-dihydro-7H-spiro[dipyrrolo[2,3-b:3′,2′-d]pyridine-8,4′-piperidin]-7-one, trifluoroacetate salt]",> 2500,> 2500,100 to 500,100 to 500
"COc1cccc(NC(=O)N2CCC3(CC2)C(=O)N(C)c2cnc4[nH]c(-c5ccc(CN6CCC(S(C)(=O)=O)CC6)cc5)c(-c5ccccc5)c4c23)c1 [Example 21, N-(3-Methoxyphenyl)-6-methyl-2-(4-((4-(methylsulfonyl)piperidin-1-yl)methyl)phenyl)-7-oxo-1-phenyl-6,7-dihydro-3H-spiro[dipyrrolo[2,3-b:3′,2′-d]pyridine-8,4′-piperidine]-1′-carboxamide, trifluoroacetate salt]",> 2500,> 2500,≤ 100,≤ 100
"CN1C(=O)C2(CCCC2)c2c1cnc1[nH]c(-c3cnn(C)c3)c(-c3ccc(CN4CCN(S(C)(=O)=O)CC4)cc3)c21 [Example 22, 6′-Methyl-2′-(1-methyl-1H-pyrazol-4-yl)-1′-(4-((4-(methylsulfonyl)piperazin-1-yl)methyl)phenyl)-3′,6′-dihydro-7′H-spiro[cyclopentane-1,8′-dipyrrolo[2,3-b:3′,2′-d]pyridin]-7′-one, trifluoroacetate salt]",> 2500,> 2500,≤ 100,100 to 500
"CCS(=O)(=O)N1CC(CC#N)(N2CCC3(CC2)C(=O)N(C)c2cnc4[nH]c(-c5cnn(C)c5)c(-c5ccccc5)c4c23)C1 [Example 23, 2-(1-(Ethylsulfonyl)-3-(6-methyl-2-(1-methyl-1H-pyrazol-4-yl)-7-oxo-1-phenyl-6,7-dihydro-3H-spiro[dipyrrolo[2,3-b:3′,2′-d]pyridine-8,4′-piperidin]-1′-yl)azetidin-3-yl)acetonitrile, trifluoroacetate salt]",100 to 500,500 to 1250,≤ 100,≤ 100
"CC(=O)N1CC(CC#N)(N2CCC3(CC2)C(=O)N(C)c2cnc4[nH]c(-c5cnn(C)c5)c(-c5ccccc5)c4c23)C1 [Example 24, 2-(1-Acetyl-3-(6-methyl-2-(1-methyl-1H-pyrazol-4-yl)-7-oxo-1-phenyl-6,7-dihydro-3H-spiro[dipyrrolo[2,3-b:3′,2′-d]pyridine-8,4′-piperidin]-1′-yl)azetidin-3-yl)acctonitrile, trifluoroacetate salt]",100 to 500,500 to 1250,≤ 100,≤ 100
"CCNC(=O)N1CC(CC#N)(N2CCC3(CC2)C(=O)N(C)c2cnc4[nH]c(-c5cnn(C)c5)c(-c5ccccc5)c4c23)C1 [Example 25, 3-(Cyanomethyl)-N-ethyl-3-(6-methyl-2-(1-methyl-1H-pyrazol-4-yl)-7-oxo-1-phenyl-6,7-dihydro-3H-spiro[dipyrrolo[2,3-b:3′,2′-d]pyridine-8,4′-piperidin]-1′-yl)azetidine-1-carboxamide, trifluoroacetate salt]",100 to 500,500 to 1250,≤ 100,≤ 100
"CCNC(=O)NC1CC(CC#N)(N2CCC3(CC2)C(=O)N(C)c2cnc4[nH]c(-c5cnn(C)c5)c(-c5ccccc5)c4c23)C1 (stereo not drawn) [Example 28, 1-(3-(Cyanomethyl)-3-(6-methyl-2-(1-methyl-1H-pyrazol-4-yl)-7-oxo-1-phenyl-6,7-dihydro-3H-spiro[dipyrrolo[2,3-b:3′,2′-d]pyridine-8,4′-piperidin]-1′-yl)cyclobutyl)-3-ethylurea, trifluoroacetate salt]",100 to 500,100 to 500,≤ 100,≤ 100
"CN1C(=O)C2(CCN(C3(CC#N)CC(NS(=O)(=O)c4ccccc4)C3)CC2)c2c1cnc1[nH]c(-c3cnn(C)c3)c(-c3ccccc3)c21 (stereo not drawn) [Example 29, N-(3-(Cyanomethyl)-3-(6-methyl-2-(1-methyl-1H-pyrazol-4-yl)-7-oxo-1-phenyl-6,7-dihydro-3H-spiro[dipyrrolo[2,3-b:3′,2′-d]pyridine-8,4′-piperidin]-1-yl)cyclobutyl)benzenesulfonamide, trifluoroacctate salt]",500 to 1250,500 to 1250,≤ 100,≤ 100
"CN1C(=O)C2(CCN(C3(CC#N)CCC3)CC2)c2c1cnc1[nH]c(-c3cnn(CC(F)F)c3)c(-c3ccc4c(cnn4C)c3)c21 [Example 30, 2-(1-(2-(1-(2,2-Difluoroethyl)-1H-pyrazol-4-yl)-6-methyl-1-(1-methyl-1H-indazol-5-yl)-7-oxo-6,7-dihydro-3H-spiro[dipyrrolo[2,3-b:3′,2′-d]pyridine-8,4′-piperidin]-1′-yl)cyclobutyl)acetonitrile, trifluoroacetate salt]",100 to 500,100 to 500,≤ 100,≤ 100
"CN1C(=O)C2(CCN(C3(CC#N)CCC3)CC2)c2c1cnc1[nH]c(-c3cnn(C)c3)c(-c3ccc4c(cnn4C)c3)c21 [Example 31, 2-(1-(6-Methyl-1-(1-methyl-1H-indazol-5-yl)-2-(1-methyl-1H-pyrazol-4-yl)-7-oxo-6,7-dihydro-3H-spiro[dipyrrolo[2,3-b:3′,2′-d]pyridine-8,4′-piperidin]-1′-yl)cyclobutyl)acetonitrile, trifluoroacetate salt]",100 to 500,100 to 500,≤ 100,≤ 100
"CN1C(=O)C2(CCN(C3(CC#N)CCC3)CC2)c2c1cnc1[nH]c(-c3cnn(CC(C)(C)O)c3)c(-c3ccc4c(cnn4C)c3)c21 [Example 32, 2-(1-(2-(1-(2-Hydroxy-2-methylpropyl)-1H-pyrazol-4-yl)-6-methyl-1-(1-methyl-1H-indazol-5-yl)-7-oxo-6,7-dihydro-3H-spiro[dipyrrolo[2,3-b:3′,2′-d]pyridine-8,4′-piperidin]-1′-yl)cyclobutyl)acetonitrile, trifluoroacetate salt]",100 to 500,100 to 500,≤ 100,≤ 100
"CN1C(=O)C2(CCN(C3(CC#N)CCC3)CC2)c2c1cnc1[nH]c(-c3cnn(CC(F)(F)F)c3)c(-c3ccc4c(cnn4C)c3)c21 [Example 33, 2-(1-(6-Methyl-1-(1-methyl-1H-indazol-5-yl)-7-oxo-2-(1-(2,2,2-trifluoroethyl)-1H-pyrazol-4-yl)-6,7-dihydro-3H-spiro[dipyrrolo[2,3-b:3′,2′-d]pyridine-8,4′-piperidin]-1′-yl)cyclobutyl)acetonitrile, trifluoroacetate salt]",500 to 1250,500 to 1250,≤ 100,≤ 100
"CCS(=O)(=O)c1ccc(-c2[nH]c3ncc4c(c3c2-c2ccc3c(cnn3C)c2)C2(CCN(C3(CC#N)CCC3)CC2)C(=O)N4C)cc1 [Example 35, 2-(1-(2-(4-(Ethylsulfonyl)phenyl)-6-methyl-1-(1-methyl-1H-indazol-5-yl)-7-oxo-6,7-dihydro-3H-spiro[dipyrrolo[2,3-b:3′,2′-d]pyridine-8,4′-piperidin]-1′-yl)cyclobutyl)acetonitrile, trifluoroacetate salt]",500 to 1250,500 to 1250,≤ 100,≤ 100
"COCCn1cc(-c2[nH]c3ncc4c(c3c2-c2ccc3c(cnn3C)c2)C2(CCN(C3(CC#N)CCC3)CC2)C(=O)N4C)cn1 [Example 36, 2-(1-(2-(1-(2-Methoxyethyl)-1H-pyrazol-4-yl)-6-methyl-1-(1-methyl-1H-indazol-5-yl)-7-oxo-6,7-dihydro-3H-spiro[dipyrrolo[2,3-b:3′,2′-d]pyridine-8,4′-piperidin]-1′-yl)cyclobutyl)acetonitrile, trifluoroacetate salt]",100 to 500,100 to 500,≤ 100,≤ 100
"CN1C(=O)C2(CCN(C3(CC#N)CCC3)CC2)c2c1cnc1[nH]c(-c3cnn(C(C)(C)CO)c3)c(-c3ccc4c(cnn4C)c3)c21 [Example 37, 2-(1-(2-(1-(1-Hydroxy-2-methylpropan-2-yl)-1H-pyrazol-4-yl)-6-methyl-1-(1-methyl-1H-indazol-5-yl)-7-oxo-6,7-dihydro-3H-spiro[dipyrrolo[2,3-b:3′,2′-d]pyridine-8,4′-piperidin]-1′-yl)cyclobutyl)acetonitrile, trifluoroacetate salt]",100 to 500,100 to 500,≤ 100,≤ 100
